{
  "source": "BindingDB's records for patent US20230416268",
  "about": "(Enanta Pharmaceuticals, 2023)",
  "target": "T1, 17-beta-hydroxysteroid dehydrogenase 13 (Homo sapiens, UniProt Q7Z5P4)",
  "T1 sequence (Q7Z5P4 whole entry)": "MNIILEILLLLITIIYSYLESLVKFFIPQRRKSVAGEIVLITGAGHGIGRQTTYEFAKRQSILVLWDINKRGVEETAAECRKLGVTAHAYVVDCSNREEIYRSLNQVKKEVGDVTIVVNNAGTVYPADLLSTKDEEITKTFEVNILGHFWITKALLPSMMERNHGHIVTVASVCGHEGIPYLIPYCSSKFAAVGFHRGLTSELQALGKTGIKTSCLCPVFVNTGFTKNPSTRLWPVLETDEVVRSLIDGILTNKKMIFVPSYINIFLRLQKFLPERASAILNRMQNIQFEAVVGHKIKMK",
  "test": "17β-HSD13 Rapid-Fire Mass Spectrometry Assay",
  "text": "Recombinant human 17β-HSD13 was expressed and purified from sf9 cells at Charles River Labs (Saffron Walden, UK). Leukotriene B4 (Catalog #71160-24-2) and 12-oxoleukotriene B4 (Catalog #20140) were purchased from Cayman Chemicals (Ann Arbor, MI). NAD+ (Catalog #N8285), BSA (Catalog #A7030), DMSO (Catalog #D2650), and Tween-20 (Catalog #11332465001) were purchased from Sigma (St. Louis, MO). Formic acid (Catalog #28905) was from ThermoFisher Scientific and 384 deep well PP microplates (Catalog #784261) were from Greiner Bio-One. In a typical IC50 assay performed in a 384w PP microplate, test compounds (0-100 μM) were incubated with HSD17B13 (80 nM), LTB4 (10 μM), and NAD+ (0.5 mM) in 10 μL assay buffer (20 mM Tris (pH 7.5), BSA (0.005%), and Tween-20 (0.01%)) at RT for 3 h. The assays were quenched by adding 20 μL of 0.15% aqueous formic acid and the plates were frozen at −80° C. RF/MS analysis was performed at PureHoney Technologies (Billerica, MA) on a RapidFire RF300 system (Agilent Technologies, Inc.) coupled to an API 4000 triple quadrupole mass spectrometer (Sciex) equipped with Agilent RapidFire cartridge type A (C4). […] Leukotriene B4 (335.3) and 12-oxoLeukotriene B4 (333.3) SRM transitions were optimized with Discovery Quant software and extracted ion counts for these analytes were determined.",
  "data": [
    {"smiles": "COc1ccc(-c2nc3sc4c(O)cccc4c3c(=O)n2CCNCc2cnc[nH]2)c(C2CC2)c1", "note": "[US20230416268, Example 31]", "values": [
      {"measurement": "IC50", "result": "< 0.1", "unit": "µM"}
    ]}
  ]
}
